Test results reported in ChEMBL document CHEMBL2311451, “Discovery of a selective M₄ positive allosteric modulator based on the 3-amino-thieno[2,3-b]pyridine-2-carboxamide scaffold: development of ML253, a potent and brain penetrant compound that is active in a preclinical model of schizophrenia” (Bioorg Med Chem Lett, 2013).
Values belong to the compound of their own block, whether it stands above or below them.

What was measured:
[1] = molecular target: T1, Muscarinic acetylcholine receptor M4 (Homo sapiens) (UniProt P08173); assay: Positive allosteric modulation of human muscarinic M4 receptor expressed in CHO-K1 cells assessed as leftward shift in acetylcholine response treated for 144 secs prior to acetylcholine addition measured for 5 mins by Fluo-4-AM based calcium mobilization assay relative to control; format: functional, cell-based
T1 sequence (whole entry): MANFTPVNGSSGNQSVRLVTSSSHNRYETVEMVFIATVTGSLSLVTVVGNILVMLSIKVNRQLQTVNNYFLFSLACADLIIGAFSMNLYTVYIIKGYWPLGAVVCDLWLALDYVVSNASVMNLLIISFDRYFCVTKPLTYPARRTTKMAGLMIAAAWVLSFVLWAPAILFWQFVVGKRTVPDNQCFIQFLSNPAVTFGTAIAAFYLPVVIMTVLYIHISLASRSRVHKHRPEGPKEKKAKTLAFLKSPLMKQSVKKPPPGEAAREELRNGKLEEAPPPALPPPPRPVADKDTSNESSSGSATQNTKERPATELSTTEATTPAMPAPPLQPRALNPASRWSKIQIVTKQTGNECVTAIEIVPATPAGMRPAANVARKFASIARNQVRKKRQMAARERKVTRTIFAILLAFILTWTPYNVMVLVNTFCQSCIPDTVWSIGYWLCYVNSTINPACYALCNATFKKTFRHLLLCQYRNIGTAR

[2] = molecular target: T2, Muscarinic acetylcholine receptor M4 (Homo sapiens, UniProt P08173); assay: Positive allosteric modulation of human muscarinic M4 receptor expressed in CHO-K1 cells assessed as leftward shift in acetylcholine response treated for 144 secs prior to acetylcholine addition measured for 5 mins by Fluo-4-AM based calcium mobilization assay; format: functional, cell-based
T2 sequence (P08173 whole entry): T1 sequence (whole entry)

[3] = molecular target: T3, Muscarinic acetylcholine receptor M4 (Rattus norvegicus, UniProt P08485); assay: Positive allosteric modulation of rat muscarinic M4 receptor assessed as acetylcholine response
T3 sequence (P08485 whole entry): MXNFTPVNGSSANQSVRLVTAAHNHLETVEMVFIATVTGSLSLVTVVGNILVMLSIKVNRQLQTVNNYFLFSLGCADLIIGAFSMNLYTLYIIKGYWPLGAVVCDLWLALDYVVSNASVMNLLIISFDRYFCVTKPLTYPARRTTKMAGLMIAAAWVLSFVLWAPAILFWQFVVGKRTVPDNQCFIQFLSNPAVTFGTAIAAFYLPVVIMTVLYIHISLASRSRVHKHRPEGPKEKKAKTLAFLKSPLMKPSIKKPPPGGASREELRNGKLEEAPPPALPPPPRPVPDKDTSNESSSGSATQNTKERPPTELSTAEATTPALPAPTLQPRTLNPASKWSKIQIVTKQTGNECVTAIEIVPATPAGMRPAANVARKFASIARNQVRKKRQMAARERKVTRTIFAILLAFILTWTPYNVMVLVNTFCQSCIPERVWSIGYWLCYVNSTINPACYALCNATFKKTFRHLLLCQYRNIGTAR

[4] = molecular target: Muscarinic acetylcholine receptor M5 (Rattus norvegicus, UniProt P08911); assay: Positive allosteric modulation of rat muscarinic M5 receptor assessed as acetylcholine response
Chain of Muscarinic acetylcholine receptor M5 (Rattus norvegicus, UniProt P08911) (P08911 whole entry): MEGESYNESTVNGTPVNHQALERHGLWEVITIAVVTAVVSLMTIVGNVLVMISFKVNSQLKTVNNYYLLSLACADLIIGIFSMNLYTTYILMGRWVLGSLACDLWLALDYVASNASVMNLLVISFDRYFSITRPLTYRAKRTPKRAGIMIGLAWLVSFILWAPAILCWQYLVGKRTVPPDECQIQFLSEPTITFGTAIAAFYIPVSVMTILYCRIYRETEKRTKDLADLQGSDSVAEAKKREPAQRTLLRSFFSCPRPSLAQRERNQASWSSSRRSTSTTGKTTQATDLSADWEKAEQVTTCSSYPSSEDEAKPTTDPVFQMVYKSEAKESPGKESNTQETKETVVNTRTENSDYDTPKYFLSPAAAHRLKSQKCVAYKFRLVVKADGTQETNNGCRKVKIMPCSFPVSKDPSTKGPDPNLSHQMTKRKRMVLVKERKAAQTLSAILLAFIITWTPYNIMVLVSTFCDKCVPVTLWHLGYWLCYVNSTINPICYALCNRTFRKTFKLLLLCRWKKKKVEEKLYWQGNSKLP

[5] = molecular target: Muscarinic acetylcholine receptor M5 (Homo sapiens, UniProt P08912); assay: Positive allosteric modulation of human muscarinic M5 receptor expressed in CHO-K1 cells assessed as leftward shift in acetylcholine response treated for 144 secs prior to acetylcholine addition measured for 5 mins by Fluo-4-AM based calcium mobilization assay; format: functional, cell-based
Chain of Muscarinic acetylcholine receptor M5 (Homo sapiens, UniProt P08912) (P08912 whole entry): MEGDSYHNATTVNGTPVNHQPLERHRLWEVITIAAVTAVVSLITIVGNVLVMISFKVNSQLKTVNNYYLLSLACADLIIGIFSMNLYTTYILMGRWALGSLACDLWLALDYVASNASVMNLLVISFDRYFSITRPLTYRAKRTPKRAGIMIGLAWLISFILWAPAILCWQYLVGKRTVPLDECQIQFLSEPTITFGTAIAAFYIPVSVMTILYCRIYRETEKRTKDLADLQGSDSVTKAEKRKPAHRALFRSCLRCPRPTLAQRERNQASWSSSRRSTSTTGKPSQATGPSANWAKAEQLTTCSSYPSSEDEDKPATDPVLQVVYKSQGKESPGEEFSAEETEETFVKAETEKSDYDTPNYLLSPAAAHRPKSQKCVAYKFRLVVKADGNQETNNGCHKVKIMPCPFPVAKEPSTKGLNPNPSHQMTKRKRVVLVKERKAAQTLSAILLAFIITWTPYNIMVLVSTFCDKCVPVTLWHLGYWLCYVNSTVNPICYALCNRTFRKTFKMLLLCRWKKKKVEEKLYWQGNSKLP

[6] = molecular target: Muscarinic acetylcholine receptor M3 (Rattus norvegicus, UniProt P08483); assay: Positive allosteric modulation of rat muscarinic M3 receptor assessed as acetylcholine response
Chain of Muscarinic acetylcholine receptor M3 (Rattus norvegicus, UniProt P08483) (P08483 whole entry): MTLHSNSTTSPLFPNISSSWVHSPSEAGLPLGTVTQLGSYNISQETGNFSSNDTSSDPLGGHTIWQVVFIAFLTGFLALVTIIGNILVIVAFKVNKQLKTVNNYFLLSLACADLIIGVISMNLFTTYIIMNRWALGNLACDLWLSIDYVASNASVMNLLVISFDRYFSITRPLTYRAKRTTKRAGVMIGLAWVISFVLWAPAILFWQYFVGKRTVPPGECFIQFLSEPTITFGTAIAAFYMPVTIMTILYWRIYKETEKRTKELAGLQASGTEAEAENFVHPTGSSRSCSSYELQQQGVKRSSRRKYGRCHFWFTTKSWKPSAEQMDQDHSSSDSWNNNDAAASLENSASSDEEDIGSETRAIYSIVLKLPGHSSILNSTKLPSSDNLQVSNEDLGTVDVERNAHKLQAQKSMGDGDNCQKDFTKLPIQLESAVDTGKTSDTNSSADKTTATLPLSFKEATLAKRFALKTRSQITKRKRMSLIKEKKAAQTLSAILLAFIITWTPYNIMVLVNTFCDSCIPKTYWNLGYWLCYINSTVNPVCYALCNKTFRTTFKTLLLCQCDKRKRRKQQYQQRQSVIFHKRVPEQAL

[7] = molecular target: Muscarinic acetylcholine receptor M3 (Homo sapiens, UniProt P20309); assay: Positive allosteric modulation of human muscarinic M3 receptor expressed in CHO-K1 cells assessed as leftward shift in acetylcholine response treated for 144 secs prior to acetylcholine addition measured for 5 mins by Fluo-4-AM based calcium mobilization assay; format: functional, cell-based
Chain of Muscarinic acetylcholine receptor M3 (Homo sapiens, UniProt P20309) (P20309 whole entry): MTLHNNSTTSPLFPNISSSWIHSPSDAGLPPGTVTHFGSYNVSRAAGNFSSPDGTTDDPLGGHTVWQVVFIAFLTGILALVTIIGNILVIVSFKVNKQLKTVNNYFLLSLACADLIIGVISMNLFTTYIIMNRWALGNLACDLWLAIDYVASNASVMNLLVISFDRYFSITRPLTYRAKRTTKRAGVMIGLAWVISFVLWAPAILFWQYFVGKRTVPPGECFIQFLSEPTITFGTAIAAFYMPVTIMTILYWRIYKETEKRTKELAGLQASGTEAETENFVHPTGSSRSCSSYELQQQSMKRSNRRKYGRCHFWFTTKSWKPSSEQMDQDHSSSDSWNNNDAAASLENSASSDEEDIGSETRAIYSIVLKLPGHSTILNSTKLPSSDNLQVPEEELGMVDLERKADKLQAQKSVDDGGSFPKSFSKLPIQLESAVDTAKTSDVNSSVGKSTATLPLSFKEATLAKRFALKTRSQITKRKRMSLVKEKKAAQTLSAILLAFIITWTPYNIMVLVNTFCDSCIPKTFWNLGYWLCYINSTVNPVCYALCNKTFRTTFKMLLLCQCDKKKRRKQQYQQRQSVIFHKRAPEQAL

[8] = molecular target: Muscarinic acetylcholine receptor M2 (Rattus norvegicus) (UniProt P10980); assay: Positive allosteric modulation of rat muscarinic M2 receptor assessed as acetylcholine response relative to control
Chain of Muscarinic acetylcholine receptor M2 (Rattus norvegicus) (P10980 whole entry): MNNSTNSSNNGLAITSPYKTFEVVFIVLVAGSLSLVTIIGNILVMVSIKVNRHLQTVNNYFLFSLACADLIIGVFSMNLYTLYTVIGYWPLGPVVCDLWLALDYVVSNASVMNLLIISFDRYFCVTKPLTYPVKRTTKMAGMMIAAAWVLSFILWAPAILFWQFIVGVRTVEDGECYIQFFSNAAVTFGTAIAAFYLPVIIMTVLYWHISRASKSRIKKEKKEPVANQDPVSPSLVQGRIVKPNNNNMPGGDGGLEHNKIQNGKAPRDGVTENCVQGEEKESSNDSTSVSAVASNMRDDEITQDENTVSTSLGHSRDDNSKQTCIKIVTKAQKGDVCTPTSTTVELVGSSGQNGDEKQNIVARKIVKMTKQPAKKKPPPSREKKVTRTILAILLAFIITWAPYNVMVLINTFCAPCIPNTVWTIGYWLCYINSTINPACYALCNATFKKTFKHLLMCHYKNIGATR

[9] = molecular target: Muscarinic acetylcholine receptor M2 (Rattus norvegicus, UniProt P10980); assay: Positive allosteric modulation of rat muscarinic M2 receptor assessed as acetylcholine response
Chain of Muscarinic acetylcholine receptor M2 (Rattus norvegicus, UniProt P10980) (P10980 whole entry): as above

[10] = molecular target: Muscarinic acetylcholine receptor M2 (Homo sapiens) (UniProt P08172); assay: Positive allosteric modulation of human muscarinic M2 receptor expressed in CHO-K1 cells assessed as leftward shift in acetylcholine response treated for 144 secs prior to acetylcholine addition measured for 5 mins by Fluo-4-AM based calcium mobilization assay relative to control; format: functional, cell-based
Chain of Muscarinic acetylcholine receptor M2 (Homo sapiens) (P08172 whole entry): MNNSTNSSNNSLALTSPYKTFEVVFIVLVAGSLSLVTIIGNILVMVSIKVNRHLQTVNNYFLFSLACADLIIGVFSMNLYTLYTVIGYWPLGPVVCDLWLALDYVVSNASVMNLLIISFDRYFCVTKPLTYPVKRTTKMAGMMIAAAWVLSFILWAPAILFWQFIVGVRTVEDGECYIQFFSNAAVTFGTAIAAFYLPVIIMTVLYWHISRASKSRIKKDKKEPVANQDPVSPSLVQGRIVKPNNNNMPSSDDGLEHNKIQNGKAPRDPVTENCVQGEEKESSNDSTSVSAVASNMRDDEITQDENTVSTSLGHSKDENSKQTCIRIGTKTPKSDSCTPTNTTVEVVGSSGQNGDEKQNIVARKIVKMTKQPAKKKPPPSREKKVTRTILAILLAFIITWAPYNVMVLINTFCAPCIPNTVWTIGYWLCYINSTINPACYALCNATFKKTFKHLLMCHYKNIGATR

[11] = molecular target: Muscarinic acetylcholine receptor M2 (Homo sapiens, UniProt P08172); assay: Positive allosteric modulation of human muscarinic M2 receptor expressed in CHO-K1 cells assessed as leftward shift in acetylcholine response treated for 144 secs prior to acetylcholine addition measured for 5 mins by Fluo-4-AM based calcium mobilization assay; format: functional, cell-based
Chain of Muscarinic acetylcholine receptor M2 (Homo sapiens, UniProt P08172) (P08172 whole entry): as above

[12] = molecular target: Muscarinic acetylcholine receptor M1 (Rattus norvegicus) (UniProt P08482); assay: Positive allosteric modulation of rat muscarinic M1 receptor assessed as acetylcholine response relative to control
Chain of Muscarinic acetylcholine receptor M1 (Rattus norvegicus) (P08482 whole entry): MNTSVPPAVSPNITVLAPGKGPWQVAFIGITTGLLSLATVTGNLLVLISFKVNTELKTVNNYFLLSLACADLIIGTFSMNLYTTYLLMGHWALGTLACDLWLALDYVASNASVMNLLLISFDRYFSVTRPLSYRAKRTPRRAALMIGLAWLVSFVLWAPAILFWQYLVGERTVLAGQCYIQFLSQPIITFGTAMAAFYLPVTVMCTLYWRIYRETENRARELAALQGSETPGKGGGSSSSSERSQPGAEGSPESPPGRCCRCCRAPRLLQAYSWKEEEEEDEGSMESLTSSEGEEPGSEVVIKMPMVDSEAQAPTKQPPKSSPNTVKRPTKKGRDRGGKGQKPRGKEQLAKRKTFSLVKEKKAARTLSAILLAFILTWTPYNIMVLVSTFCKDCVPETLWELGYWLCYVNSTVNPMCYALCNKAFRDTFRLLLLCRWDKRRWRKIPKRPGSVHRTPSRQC

[13] = molecular target: Muscarinic acetylcholine receptor M1 (Rattus norvegicus, UniProt P08482); assay: Positive allosteric modulation of rat muscarinic M1 receptor assessed as acetylcholine response
Chain of Muscarinic acetylcholine receptor M1 (Rattus norvegicus, UniProt P08482) (P08482 whole entry): as above

[14] = molecular target: Muscarinic acetylcholine receptor M1 (Homo sapiens) (UniProt P11229); assay: Positive allosteric modulation of human muscarinic M1 receptor expressed in CHO-K1 cells assessed as leftward shift in acetylcholine response treated for 144 secs prior to acetylcholine addition measured for 5 mins by Fluo-4-AM based calcium mobilization assay relative to control; format: functional, cell-based
Chain of Muscarinic acetylcholine receptor M1 (Homo sapiens) (P11229 whole entry): as the sequence (P08482 whole entry) above, with V5A, S254T, S309P, K320R, G337A, V413I counted along it

[15] = system: Plasma; assay: Fraction unbound in human plasma; format: ADME, cell-free
[16] = molecular target: Muscarinic acetylcholine receptor M1 (Homo sapiens, UniProt P11229); assay: Positive allosteric modulation of human muscarinic M1 receptor expressed in CHO-K1 cells assessed as leftward shift in acetylcholine response treated for 144 secs prior to acetylcholine addition measured for 5 mins by Fluo-4-AM based calcium mobilization assay; format: functional, cell-based
Chain of Muscarinic acetylcholine receptor M1 (Homo sapiens, UniProt P11229) (P11229 whole entry): as the sequence (P08482 whole entry) above, with V5A, S254T, S309P, K320R, G337A, V413I counted along it

[17] = system: Plasma; assay: Fraction unbound in rat plasma; format: ADME, cell-free
[18] = molecular target: Muscarinic acetylcholine receptor M4 (Rattus norvegicus) (UniProt P08485); assay: Positive allosteric modulation of rat muscarinic M4 receptor assessed as acetylcholine response at 10 uM relative to acetylcholine
[19] = molecular target: T1, Muscarinic acetylcholine receptor M4 (Homo sapiens); assay: Positive allosteric modulation of human muscarinic M4 receptor expressed in CHO-K1 cells assessed as leftward shift in acetylcholine response at 10 uM treated for 144 secs prior to acetylcholine addition measured for 5 mins by Fluo-4-AM based calcium mobilization assay relative to acetylcholine; format: functional, cell-based
[20] = system: Rattus norvegicus; assay: Antipsychotic activity in Sprague-Dawley rat assessed as reversal of amphetamine-induced hyperlocomotion at 100 mg/kg, ip after 90 mins; format: functional; details: route intraperitoneal
[21] = system: Rattus norvegicus; assay: Antipsychotic activity in Sprague-Dawley rat assessed as reversal of amphetamine-induced hyperlocomotion at 56.6 mg/kg, ip after 90 mins; format: functional; details: route intraperitoneal
[22] = system: Rattus norvegicus; assay: Antipsychotic activity in Sprague-Dawley rat assessed as reversal of amphetamine-induced hyperlocomotion at 30 mg/kg, ip after 90 mins; format: functional; details: route intraperitoneal
[23] = system: Rattus norvegicus; assay: Antipsychotic activity in Sprague-Dawley rat assessed as reversal of amphetamine-induced hyperlocomotion at 10 mg/kg, ip after 90 mins; format: functional; details: route intraperitoneal
[24] = system: Rattus norvegicus; assay: Antipsychotic activity in Sprague-Dawley rat assessed as reversal of amphetamine-induced hyperlocomotion at 3 mg/kg, ip after 90 mins; format: functional; details: route intraperitoneal
[25] = system: Brain; assay: Drug level in rat brain at 10 mg/kg, ip up to 6 hrs; format: ADME, organism-based; parameters: dose 10 mg/kg, route intraperitoneal; details: in vivo
[26] = AUC in rat at 1 mg/kg, iv; format: ADME, organism-based; parameters: dose 1 mg/kg, route intravenous; details: plasma
[27] = Mean residence time in rat at 1 mg/kg, iv; format: ADME, organism-based; parameters: dose 1 mg/kg, route intravenous; details: in vivo
[28] = Volume of distribution at steady state in rat at 1 mg/kg, iv; format: ADME, organism-based; parameters: dose 1 mg/kg, route intravenous; details: in vivo, read-out: Vdss
[29] = Half life in rat at 1 mg/kg, iv; format: ADME, organism-based; parameters: dose 1 mg/kg, route intravenous; details: in vivo
[30] = Clearance in rat at 1 mg/kg, iv; format: ADME, organism-based; parameters: dose 1 mg/kg, route intravenous; details: in vivo
[31] = molecular target: Sodium-dependent dopamine transporter (Homo sapiens) (UniProt Q01959); assay: Binding affinity to human DAT at 10 uM by radioligand binding assay
Chain of Sodium-dependent dopamine transporter (Homo sapiens) (Q01959 whole entry): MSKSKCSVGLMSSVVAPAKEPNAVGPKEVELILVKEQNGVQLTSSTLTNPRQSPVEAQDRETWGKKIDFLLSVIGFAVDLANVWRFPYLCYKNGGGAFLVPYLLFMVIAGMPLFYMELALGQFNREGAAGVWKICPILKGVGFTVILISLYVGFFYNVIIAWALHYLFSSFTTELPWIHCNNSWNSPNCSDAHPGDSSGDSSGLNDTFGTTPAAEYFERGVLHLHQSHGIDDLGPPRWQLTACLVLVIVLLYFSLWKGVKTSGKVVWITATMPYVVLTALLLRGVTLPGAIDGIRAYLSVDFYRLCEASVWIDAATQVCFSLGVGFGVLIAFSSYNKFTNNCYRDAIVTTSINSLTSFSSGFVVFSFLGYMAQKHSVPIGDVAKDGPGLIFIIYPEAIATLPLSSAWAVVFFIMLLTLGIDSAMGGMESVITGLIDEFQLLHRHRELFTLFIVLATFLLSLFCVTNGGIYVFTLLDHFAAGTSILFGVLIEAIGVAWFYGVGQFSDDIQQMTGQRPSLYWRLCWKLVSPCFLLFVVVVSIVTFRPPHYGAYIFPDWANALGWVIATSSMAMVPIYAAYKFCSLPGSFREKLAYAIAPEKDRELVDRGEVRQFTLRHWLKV

[32] = species: Rattus norvegicus; assay: Binding affinity to rat GABAA receptor at 10 uM by radioligand binding assay
[33] = system: Rattus norvegicus; assay: Antipsychotic activity in ip dosed Sprague-Dawley rat assessed as reversal of amphetamine-induced hyperlocomotion after 90 mins; format: functional, organism-based
[34] = Systemic plasma AUC in rat at 10 mg/kg, ip up to 6 hrs

SMILES: Cc1cc(OCc2ccncc2)nc2sc(C(=O)NCc3cccc(F)c3F)c(N)c12
EC50 [3]: 0.9 µM
EC50 ([2]; read-out: EC50): 0.5 µM

SMILES: Cc1nc2sc(C(=O)NC(C)c3ccccn3)c(N)c2c(C)c1Cl (stereo not given)
%max [1]: 51.1%
EC50 ([2]; read-out: EC50): 1.37 µM

SMILES: Cc1nc2sc(C(=O)NC3CC3)c(N)c2c(C)c1Cl
EC50 [4]: > 30 µM
EC50 [5]: > 30 µM
EC50 [6]: > 30 µM
EC50 [7]: > 30 µM
%max [8]: 58%
EC50 [9]: 0.64 µM
%max [10]: 64%
EC50 [11]: 0.55 µM
%max [12]: 26%
EC50 [13]: 0.94 µM
%max [14]: 33%
Fu [15]: 1.1%
EC50 [16]: 0.97 µM
Fu [17]: 6.4%
fold change (FC) [18]: 54.1
fold change (FC) [19]: 224
EC50 [3]: 0.147 µM
%max [1]: 94%
EC50 ([2]; read-out: EC50): 0.077 µM

SMILES: Cc1nc2sc(C(=O)NCc3ccccc3N(C)C)c(N)c2c(C)c1Cl
EC50 ([2]; read-out: EC50): > 30 µM

SMILES: Cc1nc2sc(C(=O)NCc3ccc(C(F)(F)F)cc3)c(N)c2c(C)c1Cl
%max [1]: 33.6%
EC50 ([2]; read-out: EC50): 1.75 µM

SMILES: Cc1nc2sc(C(=O)NCC3CCCCC3)c(N)c2c(C)c1Cl
%max [1]: 69.7%
EC50 ([2]; read-out: EC50): 1.41 µM

SMILES: Cc1nc2sc(C(=O)NCCc3cccnc3)c(N)c2c(C)c1Cl
EC50 ([2]; read-out: pEC50 (converted)): > 30.2 µM

SMILES: Cc1nc2sc(C(=O)NCc3ccncc3)c(N)c2c(C)c1Cl
Activity [20]: 57.3%
Activity [21]: 53.7%
Activity [22]: 47.9%
Activity [23]: 25.7%
Activity [24]: 18.7%
Drug uptake [25]: 3410 ng/g
AUC [26]: 175 ng·h/mL
MRT [27]: 27.5 min
Vd [28]: 2.6 L/kg
half-life [29]: 17.5 min
clearance [30]: 104 mL/min/kg
inhibition [31]: 74%
inhibition [32]: 64%
EC50 [4]: > 30 µM
EC50 [5]: > 30 µM
EC50 [6]: > 30 µM
EC50 [7]: > 30 µM
EC50 [9]: > 30 µM
EC50 [11]: > 30 µM
EC50 [13]: > 30 µM
EC50 [16]: > 30 µM
Fu [17]: 1.7%
fold change (FC) [18]: 49.6
fold change (FC) [19]: 106
EC50 [3]: 0.176 µM
%max [1]: 94.1%
EC50 ([2]; read-out: EC50): 0.056 µM
Activity [33]: Dose-dependent effect
AUC at 6 h [34]: 3880 ng·h/mL

The next lines start with the values.

%max [1]: 81%
EC50 ([2]; read-out: EC50): 0.108 µM
SMILES: Cc1nc2sc(C(=O)NCc3ccccc3)c(N)c2c(C)c1Cl

%max [1]: 65.1%
EC50 ([2]; read-out: EC50): 0.249 µM
SMILES: Cc1nc2sc(C(=O)NCc3nccs3)c(N)c2c(C)c1Cl

%max [1]: 32.4%
EC50 ([2]; read-out: EC50): 0.16 µM
SMILES: Cc1nc2sc(C(=O)NCc3ccccc3Cl)c(N)c2c(C)c1Cl

%max [1]: 83.6%
EC50 ([2]; read-out: EC50): 0.107 µM
SMILES: COc1ccc(CNC(=O)c2sc3nc(C)c(Cl)c(C)c3c2N)cc1

%max [1]: 71.7%
EC50 ([2]; read-out: EC50): 0.08 µM
SMILES: Cc1nc2sc(C(=O)NCc3ccc4c(c3)OCO4)c(N)c2c(C)c1Cl

%max [1]: 57.3%
EC50 ([2]; read-out: EC50): 0.669 µM
SMILES: Cc1nc2sc(C(=O)NC(C)c3cccnc3)c(N)c2c(C)c1Cl (stereo not given)

%max [1]: 41.4%
EC50 ([2]; read-out: EC50): 0.226 µM
SMILES: Cc1nc2sc(C(=O)NC3CCCCC3)c(N)c2c(C)c1Cl

%max [1]: 78.5%
EC50 ([2]; read-out: EC50): 0.271 µM
SMILES: Cc1nc2sc(C(=O)NCc3ccncn3)c(N)c2c(C)c1Cl

%max [1]: 79.5%
EC50 ([2]; read-out: EC50): 0.124 µM
SMILES: Cc1nc2sc(C(=O)NCc3cccc(F)c3F)c(N)c2c(C)c1Cl

%max [1]: 74.1%
EC50 ([2]; read-out: EC50): 0.356 µM
SMILES: Cc1nc2sc(C(=O)NCc3ccccn3)c(N)c2c(C)c1Cl

%max [1]: 74.5%
EC50 ([2]; read-out: EC50): 0.326 µM
SMILES: Cc1nc2sc(C(=O)NCc3ccnnc3)c(N)c2c(C)c1Cl
